{
  "source": "patent US20190350879A1",
  "about": "“METHOD OF TREATING PAIN USING RACEMIC MIXTURE OF S-KETAMINE AND R-KETAMINE” (priority 2017, published 2019)",
  "origin": "cited, not measured here",
  "key": {"[1]": {"test_system": "N-Methyl-D-Aspartate receptors", "conditions": "S(+)ketamine relative to R-isomer; target not named"}, "[2]": {"conditions": "S(+)ketamine compared to R-isomer"}},
  "data": [
    {"smiles": "CN[C@]1(c2ccccc2Cl)CCCCC1=O", "note": "[S(+)ketamine]", "values": [
      {"measurement": "affinity, times greater", "setting": "[1]", "result": "approximately four"},
      {"measurement": "psychotomimetic side effects", "setting": "[2]", "result": "greater psychotomimetic side effects"}
    ]}
  ]
}
